Results published in patent EP4463162B1, “CONNEXIN 43 FOR USE IN TREATING BRCA1/2-MUTATED CANCER” (Fundación Profesor Novoa Santos, priority 2022, dated 2023).

Experiments:
[1] = system: poly(ADP-ribose) (PAR) polymer; experiment: Global protein PARylation, western blot and immunofluorescence; format: cell-based, human; settings: 48 and 96 h, western blot
Procedure: 2 000-10 000 cells were plated on glass coverslips (Thermo Fisher Scientific) previously coated with poly-D-lysine hydrobromide (Sigma-Aldrich) and cultured until they were approximately 80 % confluent. They were washed with PBS, fixed with 4 % paraformaldehyde (PFA, Sigma-Aldrich) in PBS for 15 min at room temperature and rinsed twice with PBS. Next, cells were incubated with 0.1 M glycine (Sigma-Aldrich) in distilled water to quench PFA for 10 min at room temperature, and then their membranes were permeabilized with 0.2 % Triton X-100 (Sigma-Aldrich) in PBS for 10 min at room temperature. After two 5 min PBS washes, potential nonspecific antibody binding sites were blocked with 1 % bovine serum albumin (BSA; Sigma-Aldrich) diluted in PBST (PBS+0.1 % Tween 20; Sigma-Aldrich) for 30 min at room temperature. Cells were incubated overnight at 4 °C in the dark with primary antibody (see references in Table 3) diluted in 1 % BSA in PBST. […]
Protein extracts were mixed with loading buffer, which consisted of 10 % (v/v) β-mercaptoethanol (Sigma-Aldrich), 10 % SDS, 50 % (v/v) glycerol, 200 mM Tris-HCl pH 6.8 and 0.1 % bromophenol blue (Sigma-Aldrich). […] Ponceau staining and western blot images were analysed and their band intensities quantitated with Image J software. […]

p21 = experiment: Western blot against senescence marker p21; format: cell-based, human; settings: Cx43_HCC1937, 96 h, 100 µM olaparib
Procedure: Protein extracts were mixed with loading buffer, which consisted of 10 % (v/v) β-mercaptoethanol (Sigma-Aldrich), 10 % SDS, 50 % (v/v) glycerol, 200 mM Tris-HCl pH 6.8 and 0.1 % bromophenol blue (Sigma-Aldrich). They were boiled at 95 °C for 8 min and 20-30 µg protein were loaded into 8, 10 or 15 % acrylamide/bis-acrylamide self-made gels, depending on the molecular weight of the target protein/s to investigate. Gels were run at 80 V for approximately 2 h using a Mini-PROTEAN Tetra electrophoresis system (BioRad), and then transferred to methanol-preactivated polyvinylidene fluoride (PVDF) membranes (Millipore) at 100 V and 4 °C for 1-1.5 h with a Mini Trans-Blot Electrophoretic Transfer Cell (BioRad). Afterwards, membranes with the transferred proteins were stained with ATX Ponceau S red staining solution (Sigma-Aldrich) for 10 min at room temperature, photographed in an Amersham Imager 600 (GE Healthcare) and unstained with distilled water. They were then blocked for 1 h at room temperature with 5 % skim milk (Sigma-Aldrich) diluted in TBST buffer (Tris-buffered saline TBS composed of 20 mM Tris and 150 mM NaCl, supplemented with 0.05 % (v/v) Tween-20, Sigma-Aldrich) with shaking. […] Ponceau staining and western blot images were analysed and their band intensities quantitated with Image J software. […]

SMILES: O=C(c1cc(Cc2n[nH]c(=O)c3ccccc23)ccc1F)N1CCN(C(=O)C2CC2)CC1 [Olaparib, olaparib]
- PAR levels ([1]; Cx43_HCC1937, 50/100 µM olaparib): decreased
- PAR levels ([1]; EV_HCC1937, 50/100 µM olaparib): rose
- senescence marker p21 (p21): significantly increased
